Several values for one entry are separate records, joined by “and”; a condition that tells them apart may be missing. Equal entries are not always repeated.
Legend:
AhR = molecular target: T1, AhR (Homo sapiens, UniProt P35869); assay: EROD assay (7-ethoxy-resorufin-O-deethylase; CYP1A1 activity) in human HepG2 cells; format: cell-based; details: for EC90: HepG2, human HepG2 cells
T1 construct: host or cells: human HepG2 cells
T1 sequence (P35869 11-848): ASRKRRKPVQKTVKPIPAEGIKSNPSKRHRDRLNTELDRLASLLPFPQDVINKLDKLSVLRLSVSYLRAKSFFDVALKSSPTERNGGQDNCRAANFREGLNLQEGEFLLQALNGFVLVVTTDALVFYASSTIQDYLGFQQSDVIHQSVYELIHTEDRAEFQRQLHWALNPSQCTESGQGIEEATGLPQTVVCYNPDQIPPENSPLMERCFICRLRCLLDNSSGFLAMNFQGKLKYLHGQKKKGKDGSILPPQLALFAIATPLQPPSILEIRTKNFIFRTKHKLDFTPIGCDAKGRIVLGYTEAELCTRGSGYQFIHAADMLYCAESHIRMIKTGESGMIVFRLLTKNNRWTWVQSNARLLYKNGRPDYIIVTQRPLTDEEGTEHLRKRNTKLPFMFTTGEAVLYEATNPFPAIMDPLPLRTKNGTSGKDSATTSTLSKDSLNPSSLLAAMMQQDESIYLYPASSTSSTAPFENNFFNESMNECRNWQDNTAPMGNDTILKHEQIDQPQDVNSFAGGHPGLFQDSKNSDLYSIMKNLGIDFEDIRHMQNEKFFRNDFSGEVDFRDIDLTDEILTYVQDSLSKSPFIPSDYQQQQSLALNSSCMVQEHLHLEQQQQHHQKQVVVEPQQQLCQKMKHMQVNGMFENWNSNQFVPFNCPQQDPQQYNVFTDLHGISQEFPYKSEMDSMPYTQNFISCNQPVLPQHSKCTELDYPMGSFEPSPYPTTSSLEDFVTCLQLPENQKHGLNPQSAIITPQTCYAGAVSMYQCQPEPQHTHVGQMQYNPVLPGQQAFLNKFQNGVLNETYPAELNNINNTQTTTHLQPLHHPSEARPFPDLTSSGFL
Protocol: CYP1A1 induction is under the control of the AhR signaling pathway. This Example describes an in vitro assay (7-ethoxy-resorufin-O-deethylase (EROD) assay) that evaluated the AhR modulating activities of the indole compounds described herein. In this assay, the indole compounds were incubated with human HepG2 cells or mouse Hepa1-6 cells. The activity of CYP1A1 in the cells was measured by the conversion of substrate 7-ethoxyresorufin, with the readout being a fluorescence signal associated with the conversion product. The EC50 values of the indole compounds as well as the maximum luminescence induced by them in the assay were determined.
Human HepG2 cells were obtained from Sigma Aldrich (Catalog 85011430-1VL).
Human HepG2 cells were grown to 60-80% confluency in tissue culture flasks, lifted with non-enzymatic cell dissociation solution (cell stripper), seeded in a 384-well plate at 5,000 cells per well, treated with the test compounds, and incubated for 20 hours overnight at 37° C. The treatment medium was removed and a solution of substrate 7-ethoxyresorufin (ETX) was added to initiate the reaction. The plate was incubated at 37° C. for 30 minutes. The reaction was subsequently terminated by adding tempered methanol. Fluorescent emission was measured at 590 nm with excitation at 530 nm in a FLEXSTATION III instrument (Molecular Devices).

CYP1A2 = molecular target: T2, CYP1A2 (Homo sapiens, UniProt P05177); assay: CYP profiling: human liver microsomes with CYP1A2 inhibitor furafylline; format: in vitro ADME; parameters: % Compound Metabolized at 30 min, CYP1A2 Inhibitor: concentration or dose not given beside the values; details: HLMs; for % Inhibition Relative to Negative Control, 1A2: 30 min
T2 construct: from tissue; host or cells: human liver microsomes
T2 sequence (P05177 1-516): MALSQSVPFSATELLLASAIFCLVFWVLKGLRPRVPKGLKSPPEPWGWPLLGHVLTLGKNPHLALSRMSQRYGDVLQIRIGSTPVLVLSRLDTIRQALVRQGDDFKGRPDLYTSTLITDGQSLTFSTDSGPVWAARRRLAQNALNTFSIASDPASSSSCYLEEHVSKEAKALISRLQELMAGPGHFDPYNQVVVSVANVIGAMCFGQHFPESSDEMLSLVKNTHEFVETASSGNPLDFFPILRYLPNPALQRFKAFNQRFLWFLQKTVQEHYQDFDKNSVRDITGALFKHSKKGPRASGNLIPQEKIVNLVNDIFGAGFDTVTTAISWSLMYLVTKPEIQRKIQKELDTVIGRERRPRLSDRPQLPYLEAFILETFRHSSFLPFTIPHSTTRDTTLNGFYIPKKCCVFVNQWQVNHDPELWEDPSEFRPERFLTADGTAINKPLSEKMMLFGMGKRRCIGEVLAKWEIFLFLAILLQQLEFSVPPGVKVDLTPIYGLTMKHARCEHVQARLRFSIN
Protocol: In order to investigate the contributions of CYP1A2 and CYP3A4 to the metabolism of the compounds of the present disclosure, human liver microsomes were incubated with the test compounds for 30 minutes in the presence of selective chemical inhibitors furafylline (1A2) and ketoconazole (3A4).

SMILES | EC90 (AhR; Plate 2) | fold more potent than ARI-164 by EC50 (AhR; human HepG2 cells) | fold more potent than ARI-164 by EC90 (AhR; human HepG2 cells) | EC50 (AhR; human HepG2 cells, Plate 2) | % Compound Metabolized at 30 min, CYP1A2 Inhibitor (CYP1A2) | % Inhibition Relative to Negative Control, 1A2 (CYP1A2) | EC90 (AhR; Plate 1) | fold more potent than ARI-187 by EC50 (AhR; human HepG2 cells) | fold more potent than ARI-187 by EC90 (AhR; human HepG2 cells) | EC50 (AhR; human HepG2 cells, Plate 1) | fold more potent than ARI-219 by EC50 (AhR; human HepG2 cells) | fold more potent than ARI-219 by EC90 (AhR; human HepG2 cells)
CC(C)(N)c1csc(C(=O)c2c[nH]c3cc(F)ccc23)n1 [ARI-226, (4-(2-aminopropan-2-yl)thiazol-2-yl)(6-fluoro-1H-indol-3-yl)methanone] | 0.033 µM | 4.2 × | 4.2 × | 0.0246 µM | 16% | None | – | – | – | – | – | –
CCC(=O)c1csc(C(=O)c2c[nH]c3cc(F)ccc23)n1 [ARI-143, 1-(2-(6-fluoro-1H-indole-3-carbonyl)thiazol-4-yl)propan-1-one] | 0.347 µM | – | – | 0.0952 µM | 32% and 17% | 54% and 81% | – | – | – | – | – | –
N[C@@H](c1csc(C(=O)c2c[nH]c3ccccc23)n1)C(F)(F)F [ARI-229] | 0.204 µM | – | – | 0.0503 µM | 0% | None | – | – | – | – | – | –
CC(C)(O)c1csc(C(=O)c2c[nH]c3cc(F)ccc23)n1 [ARI-220, (6-fluoro-1H-indol-3-yl)(4-(2-hydroxypropan-2-yl)thiazol-2-yl)methanone] | 0.476 µM | – | – | 0.372 µM | 0% | 100% | – | – | – | – | – | –
CC[C@H](N)c1csc(C(=O)c2c[nH]c3cc(F)ccc23)n1 [ARI-186, (S)-(4-(1-aminopropyl)thiazol-2-yl)(6-fluoro-1H-indol-3-yl)methanone] | – | 17.8 × | 18.0 × | – | 10% | 23% | 0.0074 µM | 9.5 × and 9.6 × | 20.5 × and 20.6 × | 0.0058 µM | – | –
N[C@@H](c1csc(C(=O)c2c[nH]c3cc(F)ccc23)n1)C(F)(F)F [ARI-224] | 0.152 µM | 3.1 × | 0.90 × | 0.0337 µM | 7% | 22% | – | – | – | – | – | –
CC[C@@H](N)c1csc(C(=O)c2c[nH]c3ccc(F)cc23)n1 [ARI-219] | 0.419 µM | – | – | 0.124 µM | 5% | 62% | – | – | – | – | – | –
N[C@H](c1csc(C(=O)c2c[nH]c3cc(F)ccc23)n1)C(F)(F)F [ARI-223] | 0.103 µM | – | – | 0.0226 µM | 12% | 85% | – | – | – | – | – | –
O=C(c1nc(C2(O)CC2)cs1)c1c[nH]c2cc(F)ccc12 [ARI-221, (6-fluoro-1H-indol-3-yl)(4-(1-hydroxycyclopropyl)thiazol-2-yl)methanone] | 0.0345 µM | – | – | 0.0261 µM | 28% | 71% | – | – | – | – | – | –
NC1(c2csc(C(=O)c3c[nH]c4cc(F)ccc34)n2)CC1 [ARI-225, (4-(1-aminocyclopropyl)thiazol-2-yl)(6-fluoro-1H-indol-3-yl)methanone] | 0.109 µM | – | – | 0.0468 µM | 10% | 74% | – | – | – | – | – | –
CC[C@H](O)c1csc(C(=O)c2c[nH]c3cc(F)ccc23)n1 [ARI-164, (S)-(6-Fluoro-1H-indol-3-yl)(4-(1-hydroxypropyl)thiazol-2-yl)methanone] | 0.138 µM | – | – | 0.104 µM | 4% | 89% | 0.134 µM | – | – | 0.104 µM | – | –
CC[C@H](N)c1csc(C(=O)c2c[nH]c3ccc(F)cc23)n1 [ARI-218] | 0.0079 µM | – | – | 0.0063 µM | 17% | None | – | – | – | – | 19.7 × | 53 ×
O=C(c1nc([C@H](O)C(F)(F)F)cs1)c1c[nH]c2cc(F)ccc12 [ARI-212] | – | – | – | – | 51% | None | 0.15 µM | – | – | 0.0219 µM | – | –
N[C@H](c1csc(C(=O)c2c[nH]c3ccccc23)n1)C(F)(F)F [ARI-228] | 0.217 µM | – | – | 0.0656 µM | 23% | 74% | – | – | – | – | – | –
CC[C@@H](N)c1csc(C(=O)c2c[nH]c3cc(F)ccc23)n1 [ARI-187, (R)-(4-(1-aminopropyl)thiazol-2-yl)(6-fluoro-1H-indol-3-yl)methanone] | – | – | – | – | 7% | None | 0.152 µM | – | – | 0.0556 µM | – | –
O=C(c1nc([C@@H](O)C(F)(F)F)cs1)c1c[nH]c2cc(F)ccc12 [ARI-211] | – | – | – | – | 67% | None | 0.183 µM | – | – | 0.0359 µM | – | –

From patent publication US11390621B2, “Chiral indole compounds and their use” (ARIAGEN, INC., priority 2019, dated 2022)
